Columns and labels:
[1] = biological target: Prostaglandin E2 receptor EP2 subtype (Homo sapiens, UniProt P43116); test: Affinity at human EP2 receptor.
[2] = biological target: T1, Prostaglandin E2 receptor EP1 subtype (Homo sapiens, UniProt P34995); test: Affinity at human EP1 receptor.
T1 sequence (P34995 whole entry): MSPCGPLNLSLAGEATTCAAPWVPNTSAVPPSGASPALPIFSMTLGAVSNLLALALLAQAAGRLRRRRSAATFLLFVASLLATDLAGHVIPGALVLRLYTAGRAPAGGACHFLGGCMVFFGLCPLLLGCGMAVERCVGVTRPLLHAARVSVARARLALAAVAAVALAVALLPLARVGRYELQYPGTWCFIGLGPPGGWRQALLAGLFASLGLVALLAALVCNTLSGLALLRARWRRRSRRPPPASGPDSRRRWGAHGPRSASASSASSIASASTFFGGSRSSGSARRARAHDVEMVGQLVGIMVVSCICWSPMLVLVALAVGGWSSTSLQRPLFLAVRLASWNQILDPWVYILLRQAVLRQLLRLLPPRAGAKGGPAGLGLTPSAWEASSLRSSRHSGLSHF

[3] = biological target: T2, Prostaglandin E2 receptor EP3 subtype (Homo sapiens, UniProt P43115); test: Affinity at human EP3 receptor.
T2 sequence (P43115 whole entry): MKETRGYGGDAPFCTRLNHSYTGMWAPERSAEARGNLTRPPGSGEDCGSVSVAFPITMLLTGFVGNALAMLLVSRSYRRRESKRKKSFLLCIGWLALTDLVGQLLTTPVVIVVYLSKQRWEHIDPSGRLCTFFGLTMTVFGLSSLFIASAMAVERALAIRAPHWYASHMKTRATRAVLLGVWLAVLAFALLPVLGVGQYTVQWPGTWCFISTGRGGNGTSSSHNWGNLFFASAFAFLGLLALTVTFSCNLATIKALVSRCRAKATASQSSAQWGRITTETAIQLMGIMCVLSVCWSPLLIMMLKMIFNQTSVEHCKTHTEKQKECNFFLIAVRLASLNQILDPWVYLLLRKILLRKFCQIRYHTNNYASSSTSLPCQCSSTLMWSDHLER

[4] = biological target: Prostacyclin receptor (Homo sapiens, UniProt P43119); test: Compound was evaluated for its secondary binding affinity to human IP receptors by using Aequorin luminescence-based functional calcium assay
Prostacyclin receptor, sequence (P43119 whole entry): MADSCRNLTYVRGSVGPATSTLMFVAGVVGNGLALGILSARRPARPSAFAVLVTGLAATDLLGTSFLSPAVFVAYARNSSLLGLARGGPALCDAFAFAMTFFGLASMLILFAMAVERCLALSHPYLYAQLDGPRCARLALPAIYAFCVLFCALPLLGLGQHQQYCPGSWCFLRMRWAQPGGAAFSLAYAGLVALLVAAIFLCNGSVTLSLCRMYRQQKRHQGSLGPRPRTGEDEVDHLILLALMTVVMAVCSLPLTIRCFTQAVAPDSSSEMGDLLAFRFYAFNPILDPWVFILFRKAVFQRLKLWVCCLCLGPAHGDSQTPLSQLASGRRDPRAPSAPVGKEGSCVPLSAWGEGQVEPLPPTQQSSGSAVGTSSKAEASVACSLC

[5] = biological target: T3, Thromboxane A2 receptor (Homo sapiens, UniProt P21731); test: Compound was evaluated for its secondary binding affinity to human TP receptors by using Aequorin luminescence-based functional calcium assay
T3 sequence (P21731 whole entry): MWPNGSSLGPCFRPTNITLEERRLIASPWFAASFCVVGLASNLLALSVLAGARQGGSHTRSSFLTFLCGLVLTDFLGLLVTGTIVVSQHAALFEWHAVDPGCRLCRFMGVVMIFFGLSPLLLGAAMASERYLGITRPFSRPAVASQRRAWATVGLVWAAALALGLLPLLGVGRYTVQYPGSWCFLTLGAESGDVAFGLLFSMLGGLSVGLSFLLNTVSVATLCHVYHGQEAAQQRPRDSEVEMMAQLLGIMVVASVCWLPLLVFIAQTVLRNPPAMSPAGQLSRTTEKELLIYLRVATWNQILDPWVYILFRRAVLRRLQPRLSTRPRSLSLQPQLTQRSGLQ

[6] = biological target: T4, Prostaglandin D2 receptor (Homo sapiens, UniProt Q13258); test: Compound was evaluated for its secondary binding affinity to human DP receptors by using Aequorin luminescence-based functional calcium assay
T4 sequence (Q13258 whole entry): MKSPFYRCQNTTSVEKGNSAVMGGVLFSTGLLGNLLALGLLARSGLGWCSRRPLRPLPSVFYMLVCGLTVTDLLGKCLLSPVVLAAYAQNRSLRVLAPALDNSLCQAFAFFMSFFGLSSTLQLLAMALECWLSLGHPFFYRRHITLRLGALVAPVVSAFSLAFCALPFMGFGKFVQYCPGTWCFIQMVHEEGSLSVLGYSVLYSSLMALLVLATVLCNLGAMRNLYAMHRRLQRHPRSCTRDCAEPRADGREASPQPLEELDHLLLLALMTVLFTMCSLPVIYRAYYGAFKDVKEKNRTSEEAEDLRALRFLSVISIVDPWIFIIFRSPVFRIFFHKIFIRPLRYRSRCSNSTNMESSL

[7] = biological target: Prostaglandin F2-alpha receptor (Homo sapiens, UniProt P43088); test: Compound was evaluated for its secondary binding affinity to human FP receptors by using Aequorin luminescence-based functional calcium assay
Prostaglandin F2-alpha receptor, sequence (P43088 whole entry): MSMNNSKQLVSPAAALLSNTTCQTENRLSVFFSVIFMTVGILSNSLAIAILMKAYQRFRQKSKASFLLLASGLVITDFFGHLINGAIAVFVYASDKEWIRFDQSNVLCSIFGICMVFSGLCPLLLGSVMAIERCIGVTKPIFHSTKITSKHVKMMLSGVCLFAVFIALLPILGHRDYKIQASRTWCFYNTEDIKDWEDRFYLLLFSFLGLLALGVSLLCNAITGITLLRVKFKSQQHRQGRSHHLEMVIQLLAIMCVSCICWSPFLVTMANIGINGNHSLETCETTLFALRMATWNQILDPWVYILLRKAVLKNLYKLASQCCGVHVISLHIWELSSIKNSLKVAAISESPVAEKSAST

[8] = biological target: Prostaglandin E2 receptor EP4 subtype (Homo sapiens, UniProt P35408); test: Affinity at human EP4 receptor.
Prostaglandin E2 receptor EP4 subtype, sequence (P35408 whole entry): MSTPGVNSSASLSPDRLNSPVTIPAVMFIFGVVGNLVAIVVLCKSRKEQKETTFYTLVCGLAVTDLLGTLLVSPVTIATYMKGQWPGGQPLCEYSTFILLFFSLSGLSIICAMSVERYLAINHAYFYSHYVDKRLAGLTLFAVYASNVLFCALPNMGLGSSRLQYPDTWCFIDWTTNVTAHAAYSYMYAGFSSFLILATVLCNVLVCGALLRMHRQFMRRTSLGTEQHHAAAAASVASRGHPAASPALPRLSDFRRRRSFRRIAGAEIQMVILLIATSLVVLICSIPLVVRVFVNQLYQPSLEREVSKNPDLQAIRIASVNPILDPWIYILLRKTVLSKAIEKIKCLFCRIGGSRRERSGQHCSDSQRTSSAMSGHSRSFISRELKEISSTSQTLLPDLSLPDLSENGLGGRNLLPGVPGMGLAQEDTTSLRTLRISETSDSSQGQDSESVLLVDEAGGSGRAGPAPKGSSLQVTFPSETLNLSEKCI

[9] = Compound was evaluated for ratio of Ki's of EP3 and EP1

Prostaglandin E2 receptor EP2 subtype, sequence (P43116 whole entry): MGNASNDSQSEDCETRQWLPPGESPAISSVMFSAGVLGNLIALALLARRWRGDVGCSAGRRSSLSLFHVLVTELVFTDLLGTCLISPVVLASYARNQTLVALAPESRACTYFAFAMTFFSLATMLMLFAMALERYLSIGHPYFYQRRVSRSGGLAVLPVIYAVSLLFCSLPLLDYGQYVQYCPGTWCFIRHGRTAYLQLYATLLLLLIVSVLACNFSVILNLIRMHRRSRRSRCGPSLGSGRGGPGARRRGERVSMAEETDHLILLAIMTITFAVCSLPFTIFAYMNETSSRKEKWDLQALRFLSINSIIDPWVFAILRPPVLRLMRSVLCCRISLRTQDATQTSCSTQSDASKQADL

`CC(C)(C(=O)NS(=O)(=O)c1ccccc1-c1ccc(CN2C(=O)c3ccccc3CCc3ccccc32)cc1)c1ccccc1` gave a Ki [1] of 23 µM, a Ki [2] of 0.01 µM and a Ki [3] of 4 µM. For the same compound, the Ki [4] was 21 µM, the Ki [5] was 3 µM and the Ki [6] was 2.4 µM. The Ki [7] was 5 µM and the Ki [8] was 5 µM.

Work on `CN(CCc1ccccc1)C(=O)NS(=O)(=O)c1ccccc1-c1ccc(CN2C(=O)c3ccccc3CCc3ccccc32)cc1` yielded a Ki [1] of 23 µM, a Ki [2] of 0.017 µM and a Ki [3] of 5 µM. The Ki [4] was 52 µM, the Ki [5] was 2.1 µM and the Ki [6] was 2.87 µM. The Ki [7] was 6.2 µM and the Ki [8] was 1.1 µM.

For `O=C(NCCc1cccs1)NS(=O)(=O)c1ccccc1-c1ccc(CN2C(=O)c3ccccc3Oc3ccccc32)cc1`, the Ki [2] was 10.8 µM.

For `O=C1c2ccccc2CCc2ccccc2N1Cc1ccc(-c2ccccc2S(=O)(=O)N(Cc2ccccc2)C(=O)NCCc2ccccc2)cc1`, the Ki [1] was greater than 100 µM, the Ki [2] was 51 µM and the Ki [3] was greater than 100 µM. For the same compound, the Ki [8] was greater than 100 µM.

For `O=C(NCCc1cccs1)NS(=O)(=O)c1ccccc1-c1ccc(CN2Cc3ccccc3CCc3ccccc32)cc1`, the Ki [2] was 2.8 µM.

In the case of `CC(C(=O)NS(=O)(=O)c1ccccc1-c1ccc(CN2C(=O)c3ccccc3CCc3ccccc32)cc1)c1ccccc1` (centres undefined), the Ki [1] is reported as greater than 100 µM, the Ki [2] is reported as 0.016 µM and the Ki [3] is reported as 5 µM. The Ki [4] was 28.3 µM, the Ki [5] was 2.8 µM and the Ki [6] was 2.8 µM. For the same compound, the Ki [7] was 5.3 µM and the Ki [8] was 20 µM.

Work on `O=C(NS(=O)(=O)c1ccccc1-c1ccc(CN2C(=O)c3ccccc3CCc3ccccc32)cc1)OCc1ccccc1` yielded a Ki [1] of 11 µM, a Ki [2] of 0.15 µM and a Ki [3] of 2.4 µM. It also gave a Ki [8] of 6 µM.

`O=C(NCCc1cccs1)NS(=O)(=O)c1ccccc1-c1ccc(CN2C(=O)c3ccccc3CCc3ccccc32)cc1` showed a Ki [1] greater than 100 µM, a Ki [2] of 0.1 µM and a Ki [3] of 2.2 µM. It also gave a Ki [8] greater than 100 µM.

In the case of `O=C(NCCc1ccccc1)NS(=O)(=O)c1ccccc1-c1ccc(CN2C(=O)c3ccccc3CCc3ccccc32)cc1`, the Ki [1] is reported as greater than 100 µM, the Ki [2] is reported as 0.12 µM and the Ki [3] is reported as 51.2 µM. The Ki [8] was greater than 100 µM.

`CC(C)(C)NC(=O)NS(=O)(=O)c1ccccc1-c1ccc(CN2C(=O)c3ccccc3CCc3ccccc32)cc1` showed a Ki [1] greater than 100 µM, a Ki [2] of 0.77 µM and a Ki [3] of 1.2 µM. For the same compound, the Ratio [9] was 1.7 and the Ki [8] was 4.7 µM.

With `O=C(NCCc1cccs1)NS(=O)(=O)c1ccccc1-c1ccc(Cn2c(=O)c3ccccc3c3ccccc32)cc1` the Ki [2] was 1.2 µM.

With `O=C(NCCCc1ccccc1)NS(=O)(=O)c1ccccc1-c1ccc(CN2C(=O)c3ccccc3CCc3ccccc32)cc1` the Ki [1] was greater than 100 µM, the Ki [2] was 0.4 µM and the Ki [3] was greater than 100 µM. The Ki [8] was greater than 100 µM.

In the case of `O=C(Cc1ccccc1)NS(=O)(=O)c1ccccc1-c1ccc(CN2C(=O)c3ccccc3CCc3ccccc32)cc1`, the Ki [1] is reported as 14 µM, the Ki [2] is reported as 0.057 µM and the Ki [3] is reported as 2.8 µM. For the same compound, the Ki [8] was greater than 100 µM.

`O=C(NCc1ccccc1)NS(=O)(=O)c1ccccc1-c1ccc(CN2C(=O)c3ccccc3CCc3ccccc32)cc1` showed a Ki [1] greater than 100 µM, a Ki [2] of 0.2 µM and a Ki [3] of 13 µM. The Ki [8] was greater than 100 µM.

Compound `CCCCNC(=O)NS(=O)(=O)c1ccccc1-c1ccc(CN2C(=O)c3ccccc3CCc3ccccc32)cc1` has a Ki [1] greater than 100 µM, a Ki [2] of 0.22 µM and a Ki [3] of 6 µM. For the same compound, the Ki [8] was greater than 100 µM.

With `CC(C)(Cc1ccccc1)C(=O)NS(=O)(=O)c1ccccc1-c1ccc(CN2C(=O)c3ccccc3CCc3ccccc32)cc1` the Ki [1] was greater than 100 µM, the Ki [2] was 0.018 µM and the Ki [3] was 16 µM. It also gave a Ki [4] of 21 µM, a Ki [5] of 1.1 µM and a Ki [6] of 4 µM. It also gave a Ki [7] of 1.3 µM and a Ki [8] of 2.4 µM.

Work on `O=C(Nc1ccccc1)NS(=O)(=O)c1ccccc1-c1ccc(CN2C(=O)c3ccccc3CCc3ccccc32)cc1` yielded a Ki [1] of 16 µM, a Ki [2] of 21 µM and a Ki [3] of 4.6 µM. For the same compound, the Ki [8] was 19 µM.

For `CO[C@@](C(=O)NS(=O)(=O)c1ccccc1-c1ccc(CN2C(=O)c3ccccc3CCc3ccccc32)cc1)(c1ccccc1)C(F)(F)F`, the Ki [1] was 13 µM, the Ki [2] was 0.05 µM and the Ki [3] was 1.6 µM. It also gave a Ki [8] of 3 µM.

`C[C@H](NC(=O)NS(=O)(=O)c1ccccc1-c1ccc(CN2C(=O)c3ccccc3CCc3ccccc32)cc1)c1ccccc1` showed a Ki [1] of 21 µM, a Ki [2] of 0.14 µM and a Ki [3] of 4.7 µM. It also gave a Ki [8] of 6.9 µM.

With `O=C(CCc1ccccc1)NS(=O)(=O)c1ccccc1-c1ccc(CN2C(=O)c3ccccc3CCc3ccccc32)cc1` the Ki [1] was greater than 100 µM, the Ki [2] was 0.047 µM and the Ki [3] was 3.6 µM. It also gave a Ki [8] of 13 µM.

For `CO[C@](C(=O)NS(=O)(=O)c1ccccc1-c1ccc(CN2C(=O)c3ccccc3CCc3ccccc32)cc1)(c1ccccc1)C(F)(F)F`, the Ki [1] was 11 µM, the Ki [2] was 0.012 µM and the Ki [3] was 1.3 µM. It also gave a Ki [4] of 13 µM, a Ki [5] of 1.5 µM and a Ki [6] of 2 µM. The Ki [7] was 3.8 µM and the Ki [8] was 4 µM.

`CN(C(=O)NCCc1ccccc1)S(=O)(=O)c1ccccc1-c1ccc(CN2C(=O)c3ccccc3CCc3ccccc32)cc1` gave a Ki [1] greater than 100 µM, a Ki [2] of 0.36 µM and a Ki [3] greater than 100 µM. For the same compound, the Ki [8] was greater than 100 µM.

With `O=C(COc1ccccc1)NS(=O)(=O)c1ccccc1-c1ccc(CN2C(=O)c3ccccc3CCc3ccccc32)cc1` the Ki [1] was 22 µM, the Ki [2] was 0.14 µM and the Ki [3] was 4.7 µM. The Ki [8] was 7 µM.
